Measurements from patent publication US12686686B2 (priority 2020, dated 2026).
Entries after “also recorded” stand apart in the source; their conditions may differ. Like-named read-outs stand apart in the source and are kept apart here.

How the values were obtained:
C4-2B = assay: Cytotoxic activity test (MTT) on C4-2B prostate cancer cells; format: cell-based, human; conditions: C4-2B cells
Protocol: (§1) All prostate cancer cells were cultured with a RPMI-1640 medium containing 10% calf serum, 100 units of penicillin per milliliter and 100 µg/mL of streptomycin in a constant temperature incubator containing 5% carbon dioxide at a saturated humidity of 37° C.
(§2) Cells in the logarithmic phase of growth were taken and cultured in 96-well plates for 24 hours (5×10^3 cells/well), then treated with different concentrations of the compounds to be tested, and incubated by MTT method for 4 hours. The supernatant was removed by centrifugation, the MTT crystals were dissolved by adding DMSO, and the absorbance value was measured by an enzyme-linked immunosorbent assay at a wavelength of 570 nm. The cytotoxic activity of the compounds to be tested on cancer cells was expressed as IC50.

C4-2B/ENZR = assay: Cytotoxic activity test (MTT) on C4-2B/ENZR prostate cancer cells; format: cell-based, human; conditions: C4-2B/ENZR cells
Protocol: as §1, §2

LNcap = assay: Cytotoxic activity test (MTT) on LNcap prostate cancer cells; format: cell-based, human; conditions: LNcap cells, MTT; read-out: Prostate cancer cells IC50 LNcap
Protocol: as §1, §2

Vcap-CRPC = assay: Cytotoxic activity test (MTT) on Vcap-CRPC prostate cancer cells; format: cell-based, human; conditions: Vcap-CRPC cells, MTT; read-out: Prostate cancer cells IC50 Vcap-CRPC
Protocol: as §1, §2

22RV1 = assay: Cytotoxic activity test (MTT) on 22RV1 prostate cancer cells; format: cell-based, human; conditions: 22RV1 cells, MTT; read-out: Prostate cancer cells IC50 22RV1
Protocol: as §1, §2

RWPE-1 = assay: Cytotoxic activity test (MTT) on normal human prostate cell RWPE-1; format: cell-based
Protocol: as §1, §2

prostate cancer cells = assay: Inhibitory activity on a variety of prostate cancer cells (Table 1); format: cell-based, human; conditions: structure-activity statements on Table 1
Protocol: as §1, §2

[1] = system: 22Rv1 human prostate cancer cells; assay: Mice model for 22RV1 prostate cancer growth, oral administration experiment; format: in vivo, nod-scid male mice; conditions: 22RV1 tumor-bearing mice
Source text: (§3) First, a large number of 22RV1 cells were amplified. To ensure the success rate of tumor-bearing, the cell state needs to be adjusted to the optimal state. When the number of the cells was sufficient, the cells were digested and flushed twice with PBS buffer to remove fetal bovine serum (FBS) from the medium to reduce immune rejection. The cells were adjusted to 3000*10^4/mL after counting by a hemocytometer. Then 22Rv1 human prostate cancer cells […] were subcutaneously injected into a 4-5 weeks old nod-scid male mice with severe immunodeficiency.
When the tumor grew to a volume of about 100 mm^3, the mice were randomly divided into 3 groups to make sure that the average tumor volume was the same. The mice in the dosing group were orally gavaged with 0.5 mg/kg and 2 mg/kg of Compound YH-52 per day, and the mice in the control group were given the same volume of normal saline containing DMSO. The body weight of the mice and the length and width of the tumors were measured and recorded every 3 days. The subcutaneous tumors were taken and then photographed at the end of the experiment. The tumor volumes were calculated according to the equation: volume=length×width^2×π/6, and then counted. The experimental results are shown in FIG. 2A, FIG. 2B and FIG. 2C.

[2] = system: 22Rv1 human prostate cancer cells; assay: Mice model for 22RV1 prostate cancer growth, intraperitoneal injection in combination with enzalutamide; format: in vivo, nod-scid male mice
Source text: as §3
When the tumor grew to about 100 mm^3, the mice were randomly divided into 4 groups to make sure that the average tumor volume was the same. […] The body weight of the mice and the length and width of the tumor were measured and recorded every 3 days. The subcutaneous tumors were taken and then photographed at the end of the experiment. The tumor volumes were calculated according to the equation: volume=length×width^2×π/6, and then counted. The experimental results are shown in FIG. 3A, FIG. 3B, FIG. 3C and FIG. 3D.

| Compound | IC50 (C4-2B) | IC50 (C4-2B/ENZR) | IC50 (LNcap) | IC50 (Vcap-CRPC) | IC50 (22RV1) | IC50 (RWPE-1; normal human prostate cell RWPE-1, MTT, read-out: Normal cells RWPE-1 (IC50)) | inhibitory activity on prostate cancer cells (in words) (prostate cancer cells) | IC50 (RWPE-1; Homo sapiens, RWPE-1, read-out: Normal cells RWPE-1 (IC50)) | toxicity for the normal human prostate cell RWPE-1 (RWPE-1; compared with prototype compound YH-11) | tumor growth in mice ([1]; oral gavage 0.5 mg/kg per day) | tumor growth in mice ([1]; oral gavage 2 mg/kg per day) | effect in combination with ENZ ([2]; intraperitoneal injection 0.1 mg/kg in combination with ENZ (10 mg/kg)) | efficacy compared to the positive drug enzalutamide (ENZ) ([2]; intraperitoneal injection 0.1 mg/kg per day, ENZ 10 mg/kg) |
| --- | --- | --- | --- | --- | --- | --- | --- | --- | --- | --- | --- | --- | --- |
| C=C(C)[C@@]12OC3(c4ccccc4)O[C@@H]1[C@@H]1[C@@H]4O[C@]4(COC(=O)CCCCCCCCCCCCCCC)[C@@H](O)[C@]4(O)C(=O)C(C)=C[C@H]4[C@@]1(O3)[C@H](C)[C@H]2OC(C)=O [YH-5] | 0.904 µM | 0.434 µM | 0.0993 µM | 4.66 µM | 44.5 µM | 72.8 µM | significant decrease in activity | – | – | – | – | – | – |
| C=C(C)[C@@]12OC3(c4ccccc4)O[C@@H]1[C@@H]1[C@H](O)[C@](Br)(CO)[C@@H](O)[C@]4(O)C(=O)C(C)=C[C@H]4[C@@]1(O3)[C@H](C)[C@H]2OC(=O)c1ccccc1 [YH-52] | – | – | – | – | – | – | most prominent; also recorded: enhanced activity | 53.6 µM | significantly reduced toxicity | significantly inhibit tumor growth | significantly inhibit tumor growth | significant synergistic effect | greater efficacy |
